Laboratory results as given in US8431593B2, “Heteroaryl amide derivatives” (H. Lundbeck A/S, priority 2006, dated 2013).
Read-outs that look alike come from different tables or passages of the source.

Molecular target: T1, P2X7 receptor (Homo sapiens, UniProt Q99572)
T1 construct: host or cells: SH-SY5Y
T1 sequence (Q99572 1-595): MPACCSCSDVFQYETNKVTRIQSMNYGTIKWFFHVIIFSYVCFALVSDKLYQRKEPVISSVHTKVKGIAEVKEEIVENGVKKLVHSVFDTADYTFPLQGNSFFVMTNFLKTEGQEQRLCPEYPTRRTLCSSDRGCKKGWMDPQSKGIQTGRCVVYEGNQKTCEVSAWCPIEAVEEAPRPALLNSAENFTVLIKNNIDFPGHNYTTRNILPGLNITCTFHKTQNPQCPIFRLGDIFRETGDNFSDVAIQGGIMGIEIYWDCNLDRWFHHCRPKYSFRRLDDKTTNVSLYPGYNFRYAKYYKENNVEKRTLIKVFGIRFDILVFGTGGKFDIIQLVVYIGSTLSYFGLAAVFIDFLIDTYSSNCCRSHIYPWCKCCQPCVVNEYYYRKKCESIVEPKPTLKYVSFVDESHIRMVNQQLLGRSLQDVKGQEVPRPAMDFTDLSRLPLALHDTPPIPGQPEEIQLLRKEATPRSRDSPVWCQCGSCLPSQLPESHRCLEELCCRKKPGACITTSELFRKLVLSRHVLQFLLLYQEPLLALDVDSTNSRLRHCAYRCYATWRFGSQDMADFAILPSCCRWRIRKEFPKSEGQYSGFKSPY
Assay: P2X7 calcium mobilization assay, high throughput, antagonist activity (Example 4A)
Assay type: cell-based
Method in brief: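 Antagonism was measured as calcium fluorescence (FLIPR Tetra) in cells seeded one day earlier at 100,000/well, loaded with dye for 1 h and exposed to compound for 1 h at room temperature before agonist. Peak RFU, minus the no-agonist background, was referenced to the mean of the agonist wells.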

[1] = SH-SY5Y cells, 50% decrease in fluorescence response to 80 μM BzATP, read-out: IC50

| SMILES | IC50 [1] [nM] | IC50 [nM] |
| --- | --- | --- |
| COC1CCCN(C(=O)Cc2cn3c(C(=O)NCC45CC6CC(CC(C6)C4)C5)cccc3n2)C1 (stereo not shown) [Compound 47, N-(adamantan-1-ylmethyl)-2-[2-(3-methoxypiperidin-1-yl)-2-oxoethyl]imidazo[1,2-a]pyridine-5-carboxamide] | < 2000 |  |
| NC(=O)C1CCCN(C(=O)Cc2cn3c(C(=O)NCC45CC6CC(CC(C6)C4)C5)cccc3n2)C1 (stereo not shown) [Compound 50, N-(adamantan-1-ylmethyl)-2-[2-(3-carbamoylpiperidin-1-yl)-2-oxoethyl]imidazo[1,2-a]pyridine-5-carboxamide] | < 2000 |  |
| CN(CCO)C(=O)Cc1cn2c(C(=O)NCC34CC5CC(CC(C5)C3)C4)cccc2n1 [Compound 51, N-(adamantan-1-ylmethyl)-2-{2-[(2-hydroxy-ethyl)(methyl)amino]-2-oxoethyl}imidazo[1,2-a]pyridine-5-carboxamide] | < 2000 |  |
| O=C(NCC12CC3CC(CC(C3)C1)C2)c1cccc2nc(CC(=O)N3CCCC(O)C3)cn12 (stereo not shown) [Compound 53, N-(adamantan-1-ylmethyl)-2-[2-(3-hydroxypiperidin-1-yl)-2-oxoethyl]imidazo[1,2-a]pyridine-5-carboxamide] | < 2000 |  |
| O=C(NCC12CC3CC(CC(C3)C1)C2)c1cccc2nc(CC(=O)N3CCC(O)CC3)cn12 [Compound 54, N-(adamantan-1-ylmethyl)-2-[2-(4-hydroxypiperidin-1-yl)-2-oxoethyl]imidazo[1,2-a]pyridine-5-carboxamide] | < 2000 |  |
| O=C(NCC12CC3CC(CC(C3)C1)C2)c1cccc2nc(CC(=O)N3CC(O)C3)cn12 [Compound 55, N-(adamantan-1-ylmethyl)-2-[2-(3-hydroxyazetidin-1-yl)-2-oxoethyl]imidazo[1,2-a]pyridine-5-carboxamide] | < 2000 |  |
| CC1(O)CCN(C(=O)Cc2cn3c(C(=O)NCC45CC6CC(CC(C6)C4)C5)cccc3n2)CC1 [Compound 56, N-(adamantan-1-ylmethyl)-2-[2-(4-hydroxy-4-methylpiperidin-1-yl)-2-oxoethyl]imidazo[1,2-a]pyridine-5-carboxamide] | < 2000 |  |
| CN(CC(C)(C)O)C(=O)Cc1cn2c(C(=O)NCC34CC5CC(CC(C5)C3)C4)cccc2n1 [Compound 57, N-(adamantan-1-ylmethyl)-2-{2-[(2-hydroxy-2-methyl-propyl)(meth-yl)amino]-2-oxoethyl}imidazo[1,2-a]pyridine-5-carboxamide] | < 2000 |  |
| CN(CCC(C)(C)O)C(=O)Cc1cn2c(C(=O)NCC34CC5CC(CC(C5)C3)C4)cccc2n1 [Compound 58, N-(adamantan-1-ylmethyl)-2-{2-[(3-hydroxy-3-methyl-butyl)(methyl)amino]-2-oxoethyl}imidazo[1,2-a]pyridine-5-carboxamide] | < 2000 |  |
| CN(CCCC(C)(C)O)C(=O)Cc1cn2c(C(=O)NCC34CC5CC(CC(C5)C3)C4)cccc2n1 [Compound 59, N-(adamantan-1-ylmethyl)-2-{2-[(4-hydroxy-4-methylpentyl)(meth-yl)amino]-2-oxoethyl}imidazo[1,2-a]pyridine-5-carboxamide] | < 2000 |  |
| CC1(O)CCN(C(=O)Cc2cn3c(C(=O)NCC45CC6CC(CC(C6)C4)C5)cccc3n2)C1 (stereo not shown) [Compound 60, N-(adamantan-1-ylmethyl)-2-[2-(3-hydroxy-3-methylpyrrolidin-1-yl)-2-oxoethyl]imidazo[1,2-a]pyridine-5-carboxamide] | < 2000 |  |
| CCOC(=O)Cc1nc2cccc(C(=O)NCC34CC5CC(CC(C5)C3)C4)n2c1Cl [Compound 61, {5-[(Adamantan-1-ylmethyl)-carbamoyl]-3-chloro-imidazo[1,2-a]pyridin-2-yl}-acetic acid ethyl ester] | < 2000 |  |
| CC(C)(C)OC(=O)N[C@@H]1CCN(Cc2cn3c(C(=O)NCC45CC6CC(CC(C6)C4)C5)cccc3n2)C1 [Compound 62, tert-butyl [(3R)-1-({5-[(adamantan-1-ylmethyl)carbamoyl]imi-dazo[1,2-a]pyridin-2-yl}methyl)pyrrolidin-3-yl]carbamate] |  | < 2000 |
| CS(=O)(=O)OCCc1cn2c(C(=O)NCC34CC5CC(CC(C5)C3)C4)cccc2n1 [Compound 63, methanesulfonic acid 2-{5-[(adamantan-1-ylmethyl)-carbamoyl]-imidazo[1,2-a]pyridin-2-yl}-ethyl ester] | < 2000 |  |
| O=C(NCC12CC3CC(CC(C3)C1)C2)c1cccc2nc(CC(=O)N3CCNCC3)cn12 [Compound 64, N-(adamantan-1-ylmethyl)-2-(2-oxo-2-piperazin-1-ylethyl)imidazo[1,2-a]pyridine-5-carboxamide] | < 2000 |  |
| O=C(NCC12CC3CC(CC(C3)C1)C2)c1cccc2nc(CNCCO)cn12 [Compound 65, N-(adamantan-1-ylmethyl)-2-{[(2-hydroxy-ethyl)amino]methyl}imi-dazo[1,2-a]pyridine-5-carboxamide] |  | < 2000 |

| SMILES | IC50 [1] [nM] | IC50 [nM] |
| --- | --- | --- |
| C[C@@H](CO)NCc1cn2c(C(=O)NCC34CC5CC(CC(C5)C3)C4)cccc2n1 [Compound 66, N-(adamantan-1-ylmethyl)-2-({[(1S)-2-hydroxy-1-methylethyl]amino}methyl)imi-dazo[1,2-a]pyridine-5-carboxamide] |  | < 2000 |
| CC(=O)NCCNCc1cn2c(C(=O)NCC34CC5CC(CC(C5)C3)C4)cccc2n1 [Compound 67, 2-{[(2-acetamido-ethyl)amino]methyl}-N-(adamantan-1-ylmethyl)imidazo[1,2-a]pyridine-5-carboxamide] | < 2000 |  |
| O=C(NCC12CC3CC(CC(C3)C1)C2)c1cccc2nc(CNCc3ccccn3)cn12 [Compound 68, N-(adamantan-1-ylmethyl)-2-{[(pyridin-2-ylmethyl)amino]meth-yl}imidazo[1,2-a]pyridine-5-carboxamide] | < 2000 |  |
| N[C@@H]1CCN(Cc2cn3c(C(=O)NCC45CC6CC(CC(C6)C4)C5)cccc3n2)C1 [Compound 69, N-(adamantan-1-ylmethyl)-2-{[(3R)-3-aminopyrrolidin-1-yl]methyl}imidazo[1,2-a]pyridine-5-carboxamide] | < 2000 |  |
| CC(=O)N[C@@H]1CCN(Cc2cn3c(C(=O)NCC45CC6CC(CC(C6)C4)C5)cccc3n2)C1 [Compound 70, 2-[(3-acetamidopyrrolidin-1-yl)methyl]-N-(adamantan-1-ylmethyl)imidazo[1,2-a]pyridine-5-carboxamide] | < 2000 |  |
| CCNC(=O)c1cn2c(C(=O)NCC34CC5CC(CC(C5)C3)C4)cccc2n1 [Compound 72, 5-N-(adamantan-1-ylmethyl)-- ethylimidazo[1,2-a]pyridine-2,5-dicarboxamide] | < 2000 |  |
| CC(C)CNC(=O)c1cn2c(C(=O)NCC34CC5CC(CC(C5)C3)C4)cccc2n1 [Compound 73, 5-N-(adamantan-1-ylmethyl)-- isobutylimidazo[1,2-a]pyridine-2,5-dicarboxamide] | < 2000 |  |
| CN(C)C(=O)CNC(=O)c1cn2c(C(=O)NCC34CC5CC(CC(C5)C3)C4)cccc2n1 [Compound 74, 5-N-(adamantan-1-ylmethyl)--[2-(dimethylamino)-2-oxoethyl]imidazo[1,2-a]pyridine-2,5-dicarboxamide] | < 2000 |  |
| COCCN(C)C(=O)CNC(=O)c1cn2c(C(=O)NCC34CC5CC(CC(C5)C3)C4)cccc2n1 [Compound 75, 5-N-(adamantan-1-ylmethyl)--{2-[(2-methoxy-ethyl)(methyl)amino]-2-oxoethyl}imidazo[1,2-a]pyridine-2,5-dicarboxamide] | < 2000 |  |
| O=C(NCC(=O)N1CCOCC1)c1cn2c(C(=O)NCC34CC5CC(CC(C5)C3)C4)cccc2n1 [Compound 76, 5-N-(adamantan-1-ylmethyl)--(2-morpholin-4-yl-2-oxoethyl)imidazo[1,2-a]pyridine-2,5-dicarboxamide] | < 2000 |  |
| NC(=O)CCNC(=O)c1cn2c(C(=O)NCC34CC5CC(CC(C5)C3)C4)cccc2n1 [Compound 77, 5-N-(adamantan-1-ylmethyl)--(3-amino-3-oxopropyl)imidazo[1,2-a]pyridine-2,5-dicarboxamide] | < 2000 |  |
| NC(=O)CNC(=O)c1cn2c(C(=O)NCC34CC5CC(CC(C5)C3)C4)cccc2n1 [Compound 78, 5-N-(adamantan-1-ylmethyl)--(2-amino-2-oxoethyl)imidazo[1,2-a]pyridine-2,5-dicarboxamide] | < 2000 |  |
| CC(NC(=O)c1cn2c(C(=O)NCC34CC5CC(CC(C5)C3)C4)cccc2n1)C(N)=O (stereo not shown) [Compound 79, 5-N-(adamantan-1-ylmethyl)--(2-amino-1-methyl-2-oxoethyl)imidazo[1,2-a]pyridine-2,5-dicarboxamide] | < 2000 |  |
| O=C(NCCCO)c1cn2c(C(=O)NCC34CC5CC(CC(C5)C3)C4)cccc2n1 [Compound 80, 5-N-(adamantan-1-ylmethyl)--(3-hydroxy-propyl)imidazo[1,2-a]pyridine-2,5-dicarboxamide] | < 2000 |  |
| C[C@@H](O)CNC(=O)c1cn2c(C(=O)NCC34CC5CC(CC(C5)C3)C4)cccc2n1 [Compound 81, 5-N-(adamantan-1-ylmethyl)--[(2R)-2-hydroxy-propyl]imidazo[1,2-a]pyridine-2,5-dicarboxamide] | < 2000 |  |
